The values that follow come from patent US20210253598A1, “ARYL ANNULATED MACROCYCLIC INDOLE DERIVATIVES” (priority 2017, published 2021).

“And” between values parts separate entries of the source, which are not always exact repeats. Equal entries are not always repeated. Structures can show the parent of a compound that is named as a salt. Where two headings read alike, the source gives them in different places. Bounds are passed on as bounds.

The test system of data set [1] is SUDHL5. The experiment in a line: Induction of caspase-3/7 activity in SUDHL5 cells (Assay 4). The class given is cell-based. In short, it runs like this:
(§1)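 DLBCL lines SUDHL5 and SUDHL10 were treated with compound for 3 h at 37 °C. Caspase-3/7 activity was then read by Caspase-Glo 3/7 luminescence after 1 h at 37 °C. Medium-only background was subtracted and values were normalized to the mean of DMSO-treated cells.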

For data set [2], the system named is SUDHL5. Nature of the data set: Induction of cytotoxicity in SUDHL5 cells, CellTiter-Glo (Assay 6). The note with it: SUDHL5, 5 hours incubation, median, read-out: Cytotox SUDHL5 [M] (median). Format: cell-based. In short, it runs like this:
(§2)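 Viability of treated lymphoma cells is measured by luminescence with CellTiter-Glo reagent, incubated 15 minutes at room temperature. Compound exposure lasts 5 hours at 37° C.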

The subject of the next data set is MV-4-11. The experiment in a line: Anti-proliferative effect in MV-4-11 cells, CellTiter-Glo (Assay 7). The class given is cell-based. In short, it runs like this: (§3)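 Cells plated and incubated overnight at 37° C, then exposed to compound for 72 hours. Viability read as CellTiter-Glo luminescence, with a day 0 plate as time-zero reference. IC50 calculated with day 0 values and DMSO control values as references.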

In the next data set the target is MCL-1 (Homo sapiens, UniProt Q07820, K194A/K197A/R201A). The experiment in a line: Protein-protein interaction assay MCL-1/Noxa BH3 peptide, TR-FRET (MCL-1 assay, Assay 1). The note with it: MCL-1 Assay [M] (median), MBP-MCL-1 / Noxa BH3 peptide. The class given is binding. In short, it runs like this:
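Human MBP-fused MCL-1 (aa 173-321; 1 nM final) was pre-incubated 10 min at 22 °C with compound in pH 7 Tris buffer containing NaCl, KF, Tween-20, DTT and BGG. Displacement of biotinylated Noxa BH3 peptide was read by TR-FRET (anti-MBP-Eu cryptate/streptavidin-XL665) after 1 h at 22 °C plus overnight at 4 °C. IC50 came from four-parameter fits against DMSO controls.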

Data set [3] relates to SUDHL10. The experiment in a line: Induction of cytotoxicity in SUDHL10 cells, CellTiter-Glo (Assay 6). Format: cell-based. As to conditions: SUDHL10, 5 hours incubation, median, read-out: Cytotox SUDHL10 [M] (median). In short, it runs like this:
as §2

Data set [4] has as its system SUDHL10. Nature of the data set: Induction of caspase-3/7 activity in SUDHL10 cells (Assay 4). The class given is cell-based. The gist of the method: as §1
The target of the next data set is BCL-2 (Homo sapiens, UniProt P10415). Nature of the data set: Protein-protein interaction assay BCL-2/Bad BH3 peptide, TR-FRET (BCL-2 assay, Assay 3). The note with it: His-BCL-2 / Bad BH3 peptide, median. Format: binding.
The next data set has as its system AMO-1. Nature of the data set: Anti-proliferative effect in AMO-1 cells, CellTiter-Glo (Assay 7). Format: cell-based. The gist of the method: as §3
On the technique in general: Cellular ATP, detected with luciferase, serves as a proxy for viable cell number.

The mark [5] stands for this setting: MV-4-11, 72 hours incubation, CellTiter-Glo; several values per example; read-out: Antiproli MV-4-11.
[6] abbreviates: SUDHL5, 3 hours treatment, Caspase-Glo 3/7, median, read-out: Caspase SUDHL5 [M] (median).
The mark [7] stands for this setting: SUDHL10, 3 hours treatment, Caspase-Glo 3/7, median, read-out: Caspase SUDHL10 [M] (median).

Sequence of MCL-1 (Q07820 173-321 K194A/K197A/R201A, looked up): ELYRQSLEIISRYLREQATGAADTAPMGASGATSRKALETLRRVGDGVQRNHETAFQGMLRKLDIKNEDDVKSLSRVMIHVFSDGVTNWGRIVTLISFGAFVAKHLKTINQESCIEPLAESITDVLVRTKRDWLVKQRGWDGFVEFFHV
Sequence of BCL-2 (P10415 1-211): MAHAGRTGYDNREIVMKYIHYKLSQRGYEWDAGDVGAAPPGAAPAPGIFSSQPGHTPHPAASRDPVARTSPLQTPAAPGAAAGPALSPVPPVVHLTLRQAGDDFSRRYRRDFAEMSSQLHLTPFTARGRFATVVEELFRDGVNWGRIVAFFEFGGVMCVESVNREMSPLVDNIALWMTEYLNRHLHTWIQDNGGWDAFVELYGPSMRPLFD

Take `Cc1c2c(nn1C)COCc1ccccc1Cn1c(C(=O)O)c(CCCOc3cccc4cc(F)ccc34)c3ccc(Cl)c-2c31` (racemic) [Example 48, (rac)-3-Chloro-17-{3-[(6-fluoronaphthalen-1-yl)oxy]propyl}-4,5-dimethyl-5,7,9,14-tetrahydroindolo[7,1-fg]pyrazolo[3,4-d][2,8]benzoxazacycloundecine-16-carboxylic Acid]: the EC50 in the data set with SUDHL5 [1] (Homo sapiens, SU-DHL-5, 3 h, SUDHL5, 3 hours treatment, Caspase-Glo 3/7, median, read-out: Caspase SUDHL5 [M] (median)) turned out to be 1.1e-06 M; with SUDHL10 [4] (Homo sapiens, SU-DHL10, 3 h, SUDHL10, 3 hours treatment, Caspase-Glo 3/7, median, read-out: Caspase SUDHL10 [M] (median)) it was 3.1e-06 M. Besides, the IC50 was determined as 1.4e-06 M in the data set on SUDHL5 [2] (Homo sapiens, SU-DHL-5, 5 h); 4130 nM in the data set with MV-4-11 (Homo sapiens, MV4-11, 72 h, MV-4-11, 72 hours incubation, CellTiter-Glo; several values per example; read-out: Antiproli MV-4-11); 4810 nM with MV-4-11 (setting [5]); 5.9e-10 M at MCL-1; 2.6e-06 M in the data set with SUDHL10 [3] (Homo sapiens, SU-DHL10, 5 h).
Take `Cc1c2c(nn1C)COCc1ncccc1Cn1c(C(=O)O)c(CCCOc3cccc4ccccc34)c3cccc-2c31` (single isomer, unassigned; enantiomer 1) [Example 8, 4,5-Dimethyl-17-[3-(naphthalen-1-yloxy)propyl]-5,7,9,14-tetrahydropyrazolo[4′,3′:9,10]-pyrido[2′,3′:3,4][1,6]oxazacycloundecino[8,7,6-hi]indole-16-carboxylic acid-N-ethylethanamine Salt (Enantiomer 1)]: the EC50 in the data set with SUDHL5 [1] (setting [6]) came out at 2.5e-06 M; with SUDHL10 [4] (setting [7]), 9.9e-06 M. Further, the IC50 in the data set with SUDHL5 [2] is 3e-06 M; against BCL-2, over 20 µM; at MCL-1, 1.5e-09 M; in the data set on SUDHL10 [3], 7.2e-06 M.
As to `Cc1c2c(nn1C)COCc1ccccc1Cn1c(C(=O)O)c(CCCOc3cccc4ccccc34)c3ccc(Cl)c-2c31` (single isomer, unassigned; enantiomer 1) [Example 37, (−)-3-Chloro-4,5-dimethyl-17-[3-(naphthalen-1-yloxy)propyl]-5,7,9,14-tetrahydroindolo[7,1-fg]pyrazolo[3,4-d][2,8]benzoxazacycloundecine-16-carboxylic Acid (Enantiomer 1)], the EC50 with SUDHL5 [1] (setting [6]) was found to be 8.4e-07 M; with SUDHL10 [4] (setting [7]), 2.5e-06 M. In addition, the IC50 in the data set on SUDHL5 [2] was 8.6e-07 M; at BCL-2, over 20 µM; against MCL-1, 1.3e-09 M; in the data set on SUDHL10 [3] it was 2.7e-06 M.
For the compound `Cc1c2c(nn1C)COCc1ccccc1Cn1c(C(=O)O)c(CCCOc3cccc4cc(F)ccc34)c3ccc(Cl)c-2c31` (single isomer, unassigned; enantiomer 2) [Example 50, (+)-3-Chloro-17-{3-[(6-fluoronaphthalen-1-yl)oxy]propyl}-4,5-dimethyl-5,7,9,14-tetrahydroindolo[7,1-fg]pyrazolo[3,4-d][2,8]benzoxazacycloundecine-16-carboxylic acid-N-ethylethanamine Salt (Enantiomer 2)], the EC50 stood at 7.3e-07 M in the data set with SUDHL5 [1] (setting [6]) and 3.2e-06 M with SUDHL10 [4] (setting [7]). Also, the IC50 in the data set on SUDHL5 [2] was 9.3e-07 M; with MV-4-11 (setting [5]), 2210 nM and 3070 nM and 2530 nM; on MCL-1 it was 1.4e-09 M; in the data set on SUDHL10 [3], 2.8e-06 M; in the data set with AMO-1 (AMO-1, 72 hours incubation, CellTiter-Glo; several values per example; read-out: Antiproli AMO-1), 2.82 µM.
With `CCc1c2c(nn1C)COCc1ccccc1Cn1c(C(=O)O)c(CCCOc3cccc4cc(F)ccc34)c3ccc(Cl)c-2c31` (single isomer, unassigned; enantiomer 2) [Example 56, (+)-3-Chloro-4-ethyl-17-{3-[(6-fluoronaphthalen-1-yl)oxy]propyl}-5-methyl-5,7,9,14-tetrahydro-indolo[7,1-fg]pyrazolo[3,4-d][2,8]benzoxazacycloundecine-16-carboxylic Acid N-ethylethanamine Salt (Enantiomer 2)], the EC50 in the data set with SUDHL5 [1] (read-out: Caspase SUDHL5 [M] (median), SUDHL5, 3 hours treatment, Caspase-Glo 3/7) was found to be 1.3e-06 M; in the data set with SUDHL10 [4] (read-out: Caspase SUDHL10 [M] (median), SUDHL10, 3 hours treatment, Caspase-Glo 3/7) it was 5.4e-06 M. For the same compound, the IC50 amounted to 1.6e-06 M in the data set with SUDHL5 [2]; 2770 nM in the data set with MV-4-11 (read-out: Antiproli MV-4-11; MV-4-11, 72 hours incubation, CellTiter-Glo; several values per example); 3.2e-09 M against MCL-1; 3.7e-06 M in the data set on SUDHL10 [3]; 4.2 µM in the data set on AMO-1 (read-out: Antiproli AMO-1; AMO-1, 72 hours incubation, CellTiter-Glo; several values per example).
